The values below are quoted from earlier work in patent US11465999B2, “Process for preparing Alectinib or a pharmaceutically acceptable salt thereof” (FRESENIUS KABI ONCOLOGY LIMITED, priority 2017, dated 2022).

Where a name gives a salt, the structure may show the parent alone.

For data set [1] the following is noted: in water across the whole pH range and in different solvents.
For data set [2] the following is noted: high humidity: absorbs moisture to form a tetrahydrate; low humidity: dehydrates to anhydrate; drying.

For `CCc1cc2c(cc1N1CCC(N3CCOCC3)CC1)C(C)(C)c1[nH]c3cc(C#N)ccc3c1C2=O` [Alectinib hydrochloride], in data set [1], the solubility result is on record as “insoluble”.
Consider `CCc1cc2c(cc1N1CCC(N3CCOCC3)CC1)C(C)(C)c1[nH]c3cc(C#N)ccc3c1C2=O.Cl` [type III], for which the “stability of crystalline form” value in data set [2] was “converts to type II on drying”.
For `CCc1cc2c(cc1N1CCC(N3CCOCC3)CC1)C(C)(C)c1[nH]c3cc(C#N)ccc3c1C2=O.Cl` [type II], the “stability of crystalline form” value in data set [2] is reported as “not stable”.
